The values that follow come from patent US10377731B2, “Compositions and methods for cancer treatment” (Boston Biomedical, Inc., priority 2007, dated 2019).

The subject of test [1] is HepG2 human liver cancer cells. In words: 72 hour MTT, HepG2 cells, single drugs and combinations. The settings on record: read-out: Compound 401 (% Inhibition). The test is classed as cell-based. As to the method:
(§1) Cell Viability Determination: For 3-(4,5 dimethylthiazol-2-yl)-2,5-diphenyltetrazolium (MTT) (Sigma-Aldrich, St. Louis, Mo.) analysis, cells were plated in 96 well plates at 10,000 cells per well. 24 hours after plating, compound was added to cells at indicated doses. […] following compound addition, MTT was added to each well (0.5 mg/ml, final concentration) and plates were incubated for an additional 2 hours at 37° C. Medium was then aspirated and the formazan product was solubilized in 100 μl of isopropyl alcohol. The absorbance of each well was measured at 570 nm using a microplate reader.
(§2) Paca2 human pancreatic cancer cells, A549 human lung cancer cells, and HepG2 human liver cancer cells (American Type Culture Collection) were cultured in Dulbecco's modified Eagle's medium containing 10% fetal bovine serum, 100 units/mL penicillin, 100 μg/mL streptomycin, and 2 mM L-glutamine. […] Erlotinib was from American Custom Chemicals (San Diego, Calif.). Gemcitabine was from Eli Lilly (Indianapolis, Ind.) in an aqueous 20 mM stock solution. Sorafenib was Mass.). Unless otherwise noted all compounds were solubilized in DMSO at 10 mM and aliquoted at −20° C. Exponentially growing Paca2 pancreatic cancer cells were seeded at 1,000 cells per well in 6-well plates and allowed to attach for 24 hours. Increasing concentrations of individual drugs and those in combination were then added to the media for another 24 hours. After 24 hours exposure, the drug was removed and fresh media was added for the next 10-14 days, allowing for colony formation. Cells were fixed and stained with GIEMSA (Gibco BRL). […] Results are an average of duplicate experiments. Alternatively, MTT assays were performed 72 hours post-treatment in A549 and HepG2 cells.

Test [2] has as its system A549 human lung cancer cells. As to the kind of experiment: 72 hour MTT, A549 cells, single drugs and combinations. The conditions noted are these: 72 hour MTT A549 cells, read-out: Compound 401 (% Inhibition). Type of test: cell-based. As to the method:
as §1, §2

The subject of a further test is CD44high CSCs (FaDu). As to the kind of experiment: Sphere assay (CSC spherogenesis). The conditions noted are these: FACS-isolated CD44high CSCs grown as spheres for 72 hours before challenge. Type of test: cell-based, human. As to the method:
CD44^high cells were isolated by FACS according to the methods described in Ponti et al, with slight modification. Briefly, after trypsinization and recovery of cells for 30 minutes at 37° C. in growth media, cells were pelleted at 400×g and were resuspended in PBS with 2% FBS and 1 mM EDTA at 1×10^6 cells/mL. Cells were then incubated on ice with a 1:100 dilution of CD44-FITC (BD Biosicences, San Diego, Calif.) for 15 minutes. Alternatively, CD24-PE (BD Bioscences, San Diego, Calif.) (1:100) was utilized for negative selection. After washing three times, cells were resuspended at 2×10^6/mL and passed through a […] mesh before sorting
Sphere assay: A reliable method of measuring the self-renewal capacity of cell population if the ability to be cultured as spheres in the absence of serum or attachment. CD44^high FaDu or Hoechst side population cancer stem cells were cultured in ultra low attachment plates in cancer stem cell media (DMEM/F12, B27 Neurobasal supplement, 20 ng/ml EGF, 10 ng/ml FGF, 4 μg/ml insulin, and 0.4% BSA) to allow spheres formation. Typically, sphere formation was evaluated by microscopy after 10-14 days in culture and spheres with >50 cells were scored.
Identification of compounds that inhibit CSC spherogenesis in vitro. One of the hallmarks of cancer stem cells is their ability to self-renew. A reliable method of measuring the self-renewal capacity of cell populations is the ability to be cultured as spheres in the absence of serum or attachment. To compare the ability of compound 401 to other targeted and chemotherapeutic agents, FACS-isolated CD44^high CSCs were grown as spheres for 72 hours before being challenged with a panel of therapeutic agents. […] Tarceva, Sutent, and Gleevec were added at approximately three times their reported therapeutic concentrations.

The test system of test [3] is Stat3. As to the kind of experiment: Stat3-luciferase (Stat3-Luc) reporter assay, OSM-stimulated HeLa cells. Type of test: cell-based. The conditions noted are these: HeLa cells. As to the method: Luciferase Reporter Assay: HeLa Cells were co-transfected with Stat3-luciferase (Stat3-Luc) reporter vector (Panomics, Fremont, Calif.) and Renilla luciferase (Promega, Madison, Wis.) using Lipofectamine 2000 as described by the manufacturer (Invitrogen). Following transfection, cells were maintained in medium containing 0.5% FBS for 24 hours. Cells were then treated with the indicated compound for 30 minutes prior to the addition of 25 ng/ml oncostatin M (OSM) (R&D Systems, Minneapolis, Minn.) to the medium. 6 hours following OSM addition, cells were harvested and levels of firefly and renilla luciferase were measured using the Dual-Glo Luciferase Assay System as described by the manufacturer (Promega).
Inhibition of Stat3 transcription activity. Compounds were tested for their ability to inhibit Stat3 transcription activation activity in cells using a Stat3-luciferase (Stat3-luc) reporter construct. Cells transfected with Stat3-luc were cultured in reduced serum medium prior to addition of indicated compound for 30 minutes. Cells were then stimulated with 25 ng/ml oncostatin M (OSM) for 6 hours followed by detection of Stat3-luc reporter activity. […] AG490, a known inhibitor of the Jak-Stat pathway, was included as a positive control for Stat3 inhibition.
A general note: A reporter such as luciferase makes a cellular process visible.

Test [4] relates to Stat3. In words: Stat3 DNA binding assay (EMSA), HeLa nuclear extract. The test is classed as biochemical. The settings on record: HeLa nuclear extract with constitutively activated Stat3. On the procedure:
STAT3 DNA Binding Assay: Electrophoretic mobility shift assay (EMSA) was performed as described by the manufacturer (Li-Cor Biosciences, Lincoln, Nebr.). Briefly, nuclear extracts were made from HeLa cells using the NucBuster Protein Extraction Kit as described by the manufacturer (EMD Biosciences, San Diego, Calif.). 5 μg of nuclear extract was pre-incubated with the indicated dose of indicated compound for 30 minutes prior to a 15-minute incubation with the IR700-labeled consensus Stat3 oligonucleotide. Samples were then electrophoresed on a polyacrylamide gel and directly scanned using the Odyssey infrared imaging system (Li-Cor Biosciences). For the enzyme-linked immunosorbent assay (ELISA), 5 μg of nuclear extract was preincubated with indicated concentration of indicated compound for 30 minutes prior to the addition of biotinylated oligo (5′-Biotin-[…]-3′ SEQ ID NO. 1). Stat3-DNA complexes were then captured on streptavidin coated 96 well plates (Pierce, Rockford, Ill.). Bound complexes were then incubated with Stat3 polyclonal antibody (Santa Cruz Biotechnology, Santa Cruz, Calif.) followed by anti-rabbit HRP conjugated secondary antibody (GE Healthcare, Pittsburgh, Pa.). Bound antibody was then visualized by addition of TMB substrate (Pierce) and absorbance measured at 450 nm.
Inhibition of Stat3 DNA-binding activity. Nuclear extracts from HeLa cells, which contain constitutively activated Stat3 as detected by phosphorylation at the tyrosine 705 residue, were used to perform Stat3 EMSAs to monitor Stat3 DNA binding activity. Nuclear extracts were incubated with indicated compound prior to incubation with IR700-labeled Stat3 consensus oligonucleotide. Binding of Stat3 to the oligonucleotide was monitored by gel electrophoresis and detection using a LiCor Odyssey infrared scanner.
(Mobility shift assays separate free from complexed probe on a gel.)

“Also recorded” adds a separate entry of the source.

For the molecule `CC(=O)c1cc2c(o1)C(=O)c1ccccc1C2=O` [Compound 401, 2-acetylnaphtho[2,3-b]furan-4,9-dione], in test [1] (401 alone 125 nM), the inhibition (usually the relative decrease from the control value, in per cent) at 0.125 µM was 7%. The inhibition at 0.25 µM in test [1] (401 alone 250 nM) was found to be 43%; in test [2] (401 alone 250 nM), 36%. For the same molecule, the inhibition at 0.5 µM in test [2] (401 alone 500 nM) is 35%. Also, in the test on CD44high CSCs (FaDu), the “Effect on CSC sphere proliferation / formation” value is “effective at preventing sphere proliferation; also recorded: blocks”. Also, the “Inhibition of OSM-stimulated Stat3 reporter activity (in words)” value in the test on Stat3 [3] (Stat3-luc, 25 ng/ml OSM for 6 hours) is “inhibits”. In the test with Stat3 [3] (Homo sapiens, compound 30 minutes before 25 ng/ml oncostatin M, read 6 hours later, read-out: IC50 in Stat3-Luc assays), the IC50 (commonly the concentration that inhibits the measured activity by half) is roughly 0.25 µM. For the same molecule, the “Inhibition of Stat3 DNA-binding activity (in words)” value in the test with Stat3 [4] is “Dose dependent inhibition; also recorded: can inhibit”.
